For assay [1], the system named is polyamine transporter (PAT). The assay is described as follows: Ki for inhibition of [14C]spermidine uptake in L1210 cells. The class given is cell-based, mouse. The text has this:
(§1) In terms of Table 1, L1210 cells are mouse leukemia cells and are the gold standard in terms of evaluating polyamine cytotoxicity data due to a plethora of prior data in this cell line for other polyamine structures. Clearly 7a was similar in all respects to 4a (Table 1). […] The lower the Ki value, the higher the affinity of the drug for the polyamine transporter (PAT) on the cell surface. Chinese hamster ovary (CHO) cells and a mutant line without an active PAT (CHO-MG) also evaluated the PAT selectivity of these drugs.
L1210 IC50 and Ki studies. […] The Ki values in Table 3 were determined for [^14C]spermidine uptake and reflect the affinity of the polyamine derivative for the polyamine transporter on the cell surface. With both parameters, one can determine whether high affinity for the transporter (e.g., low Ki value) translated into high cytotoxicity (e.g., low IC50 value), etc.
Ki procedure. The ability of the conjugates to interact with the polyamine transport system was determined by measuring competition by the conjugates against radiolabeled spermidine uptake in L1210 cells. Initially, the Km value of spermidine transport was determined as previously described (Clément et al., Biochem. J. 1995, 312, 933-938). The ability of conjugates to compete for [^14C]spermidine uptake were determined in L1210 cells by a 10-min uptake assay in the presence of increasing concentrations of competitor, using 1 μM [^14C]spermidine as substrate. Ki values for inhibition of spermidine uptake were determined using the Cheng-Prusoff equation (Cheng and Prusoff, Biochem. Pharmacol. 1973, 22, 3099-3108) from the IC50 value derived by iterative curve fitting of the sigmoidal equation describing the velocity of spermidine uptake in the presence of the respective competitor (Torossian et al., Biochem. J., 1996, 319, 21-26). L1210 cells were grown and maintained according to established procedures (Bergeron et al., J. Med. Chem. 2000, 43, 224-235) and were washed twice in HBSS prior to the transport assay.

The next assay concerns CHO-MG cells. The assay is described as follows: Cytotoxicity in PAT-deficient CHO-MG cells. The class given is cell-based, Chinese hamster. Particulars: Cricetulus griseus, CHO-MG.
From the text: as §1
CHO and CHO-MG studies. Chinese hamster ovary (CHO) cells were chosen along with a mutant cell line (CHO-MG) in order to comment on how the synthetic conjugates gain access to cells. The CHO-MG cell line is polyamine-transport deficient and was isolated after selection for growth resistance to methylglyoxalbis(guanylhydrazone), MGBG, (CH3C[═N—NHC(═NH)NH2]CH[═N—NHC(═NH)NH2]) using a single-step selection after mutagenesis with ethylmethanesulfonate (Mandel et al., J. Cell. Physiol., 1978, 97, 335-344; Byers et al., Biochem. J. 1989, 263, 745-752).
For the purposes of this study, the CHO-MG cell line represents cells with no PAT activity and provided a model for alternative modes of entry or action, which are independent of PAT. These alternative modes of entry include passive diffusion or utilization of another transporter. The alternative modes of action may also include interactions on the outer surface of the plasma membrane or other membrane receptor interactions.
Biological studies. Murine leukemia cells (L1210), CHO and CHO-MG cells were grown in RPMI medium supplemented with 10% fetal calf serum, glutamine (2 mM), penicillin (100 U/mL), streptomycin (50 μg/mL). L-Proline (2 μg/mL) was added to the culture medium for CHO-MG cells. Cells were grown at 37° C. under a humidified 5% CO2 atmosphere. […] Trypan blue staining was used to determine cell viability before the initiation of a cytotoxicity experiment. Cells in early to mid log-phase were used. IC50 determinations. Cell growth was assayed in sterile 96-well microtiter plates (Becton-Dickinson, Oxnard, Calif., USA). L1210 cells were seeded at 5e^4 cells/mL of medium (100 μL/well). CHO and CHO-MG cells were plated at 2e^3 cells/mL. Drug solutions (10 μL per well) of appropriate concentration were added at the time of seeding for L1210 cells and after an overnight incubation for the CHO cell lines. After exposure to the drug for 48 hr, cell growth was determined by measuring formazan formation from 3-(4,5-dimethylthiazol-2-yl)2,5-diphenyltetrazolium using a Titertek Multiskan MCC/340 microplate reader for absorbance (540 nm) measurements (Mosmann, T., J. Immunol. Methods 1983, 65, 55-63).

The results in this text go back to patent US20090069441A1, “Motuporamine Mimic Agents” (priority 2006, published 2009).

pIC50, pKi: −log10 of the molar value. Where two headings read alike, the source gives them in different places.

As to `NCCCCNCCCCNCc1c2ccccc2cc2ccccc12` [Compound 6b], in assay [1] ([14C]spermidine uptake, 10-min, 1 μM substrate, read-out: L1210 Ki values), the pKi was 5.74. Moreover, the pIC50 in the assay on CHO-MG cells (absence of AG, 48 h, read-out: CHO-MG IC50 w/o AG) is 5.15; with CHO-MG cells (in the presence of AG, 48 h at 37° C., read-out: CHO-MG IC50), 4.18.
On to `CCN(CCCNCCCN)Cc1c2ccccc2cc2ccccc12` [Compound 7a, N-(3-Amino-propyl)-N′-anthracen-9-ylmethyl-N′-ethyl-propane-1,3-diamine], for which the pKi in assay [1] (new data, read-out: L1210 Ki value) is 4.63. Also, the pIC50 in the assay on CHO-MG cells (48 h incubation, new data, read-out: CHO-MG IC50) is 5.40.

By pKi is commonly meant the negative decadic logarithm of the Ki, by convention in mol/L.
